From patent US7763596B2, “Selective glucocorticoid receptor agonists” (The University of Manchester, priority 2000, dated 2010)
Changes are numbered by the printed parent chain.

Legend:
CEM-C7A cells = experiment: Apoptosis assay in CEM-C7A cells (viable cell count, MTS); assay type: cell-based, human
Description: The CEM-C7A cell line is a steroid sensitive clone of the CCRF-CEM cell line (ECACC 85112105). This is a T lymphoblastoid cell line with functional endogenous GR.
Apoptosis (programmed cell death) is mediated by a protein called Bax the transcription of which is primarily controlled by the GR in a ligand dependant manner. To measure the ability of a GR ligand to effect apoptosis a suitable cell line was incubated with ligand and a viable cell count was performed after three days.
CEM-C7A cells were plated out on to a 96well plate at 5×10^5/well. The steroids of FIGS. 1 and 2A were added immediately to generate a final concentration of 100 nM. After a three day incubation the live cell number in each well was assessed using Celltiter 96 Aqueous Non-Radioactive Cell Proliferation Assay (Promega). This assay is a calorimetric method for determining the number of viable cells in proliferation or chemosensitivity assays.
Briefly, the assay is composed of solutions of a novel tetrazolium compound (3-(4,5-dimethylthiazol-2-yl)-5-(3-carboxymethoxyphenyl)-2-(4-sulfophenyl)-2H-tetrazolium, MTS) and an electron coupling reagent (phenazine methosulfate; PMS). MTS is bioreduced by cells into a formazan product that is soluble in tissue culture medium. The absorbance of the formazan at 490 nm can be measured directly from 96 well assay plates without additional processing. The conversion of MTS into aqueous, soluble formazan is accomplished by dehydrogenase enzymes found in metabolically active cells. The quantity of formazan product as measured by the amount of 490 nm absorbance is directly proportional to the number of living cells in culture.

[1] = target: T1, progesterone receptor (PRB) (Homo sapiens, UniProt P06401); experiment: Progestogen activity assay using progesterone receptor transactivation; assay type: cell-based; details: unpublished data, conditions not given
T1 construct: expressed in transfected cells; host or cells: COS 7
T1 sequence (P06401 1-933): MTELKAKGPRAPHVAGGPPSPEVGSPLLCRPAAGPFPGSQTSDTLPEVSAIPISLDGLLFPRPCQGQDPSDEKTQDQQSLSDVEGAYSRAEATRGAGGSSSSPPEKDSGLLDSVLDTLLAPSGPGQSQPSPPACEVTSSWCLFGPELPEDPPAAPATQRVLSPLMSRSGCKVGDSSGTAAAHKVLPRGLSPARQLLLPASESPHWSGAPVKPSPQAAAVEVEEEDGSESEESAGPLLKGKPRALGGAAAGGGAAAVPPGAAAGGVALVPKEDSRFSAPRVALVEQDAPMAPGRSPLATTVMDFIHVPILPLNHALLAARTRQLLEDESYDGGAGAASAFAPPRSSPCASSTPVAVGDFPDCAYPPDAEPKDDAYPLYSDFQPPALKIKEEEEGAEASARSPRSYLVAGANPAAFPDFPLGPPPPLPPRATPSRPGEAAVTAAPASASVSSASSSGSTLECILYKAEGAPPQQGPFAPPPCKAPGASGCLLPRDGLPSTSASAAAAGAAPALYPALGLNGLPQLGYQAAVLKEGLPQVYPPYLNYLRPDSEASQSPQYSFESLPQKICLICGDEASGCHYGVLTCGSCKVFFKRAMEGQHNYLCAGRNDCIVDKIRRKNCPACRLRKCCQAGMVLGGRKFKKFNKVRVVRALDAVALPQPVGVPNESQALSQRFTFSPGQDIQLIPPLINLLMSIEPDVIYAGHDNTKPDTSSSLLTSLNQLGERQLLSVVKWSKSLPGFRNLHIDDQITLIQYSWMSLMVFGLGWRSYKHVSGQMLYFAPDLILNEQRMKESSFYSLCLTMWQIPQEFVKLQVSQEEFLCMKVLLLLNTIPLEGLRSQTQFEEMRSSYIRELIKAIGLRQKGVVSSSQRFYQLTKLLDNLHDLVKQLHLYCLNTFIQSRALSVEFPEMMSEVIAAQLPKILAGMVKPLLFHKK

[2] = cited from earlier work
glucocorticoid receptor = target: T2, glucocorticoid receptor (Homo sapiens, UniProt P04150); set-up: expressed in transfected cells; host or cells: COS 7 (African green monkey kidney, deficient in endogenous GR); details: in-vitro, other investigators; cited from earlier work
T2 sequence (P04150 1-777): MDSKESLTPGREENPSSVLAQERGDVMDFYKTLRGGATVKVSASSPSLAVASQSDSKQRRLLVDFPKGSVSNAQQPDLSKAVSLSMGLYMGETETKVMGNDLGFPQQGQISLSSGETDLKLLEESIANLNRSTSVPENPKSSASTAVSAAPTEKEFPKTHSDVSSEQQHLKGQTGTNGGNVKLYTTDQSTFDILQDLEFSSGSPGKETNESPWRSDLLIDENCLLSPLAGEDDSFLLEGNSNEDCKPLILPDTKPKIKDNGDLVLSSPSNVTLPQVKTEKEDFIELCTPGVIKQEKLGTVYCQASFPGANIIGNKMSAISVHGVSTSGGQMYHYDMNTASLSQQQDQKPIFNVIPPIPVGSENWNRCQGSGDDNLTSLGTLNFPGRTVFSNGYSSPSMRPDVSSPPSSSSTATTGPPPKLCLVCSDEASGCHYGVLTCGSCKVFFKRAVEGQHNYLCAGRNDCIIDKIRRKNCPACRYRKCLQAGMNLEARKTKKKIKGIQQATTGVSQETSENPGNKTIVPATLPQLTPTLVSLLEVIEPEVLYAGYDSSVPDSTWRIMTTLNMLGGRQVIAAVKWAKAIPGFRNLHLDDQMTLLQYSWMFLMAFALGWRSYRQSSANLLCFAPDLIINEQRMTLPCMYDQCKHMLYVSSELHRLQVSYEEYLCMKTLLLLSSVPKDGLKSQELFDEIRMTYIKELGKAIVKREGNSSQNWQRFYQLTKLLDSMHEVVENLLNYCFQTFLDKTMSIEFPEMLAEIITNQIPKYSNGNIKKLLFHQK

wild-type GR = target: T3, wild-type GR (Homo sapiens, UniProt P04150); experiment: Transactivation of the MMTV promoter by wild-type GR; assay type: cell-based; details: 100 nM
T3 construct: expressed in transfected cells
T3 sequence (P04150 1-777): T2 sequence (P04150 1-777)

GR Tyr735phe = target: T4, GR Tyr735phe (Homo sapiens, UniProt P04150, Y735F); experiment: Transactivation of the MMTV promoter by mutant GR Tyr735phe; assay type: cell-based; details: 100 nM
T4 construct: expressed in transfected cells
T4 sequence (P04150 1-777 Y735F): T2 sequence (P04150 1-777) with Y735F

GR Tyr735val = target: T5, GR Tyr735val (Homo sapiens, UniProt P04150, Y735V); experiment: Transactivation of the MMTV promoter by mutant GR Tyr735val; assay type: cell-based; details: 100 nM
T5 construct: expressed in transfected cells
T5 sequence (P04150 1-777 Y735V): T2 sequence (P04150 1-777) with Y735V

GR Tyr735ser = target: T6, GR Tyr735ser (Homo sapiens, UniProt P04150, Y735S); experiment: Transactivation of the MMTV promoter by mutant GR Tyr735ser; assay type: cell-based; details: 100 nM
T6 construct: expressed in transfected cells
T6 sequence (P04150 1-777 Y735S): T2 sequence (P04150 1-777) with Y735S

| activation of the progesterone receptor [1] | Compound | effect on proliferation (CEM-C7A cells; CEM C7A cells) | induction of apoptosis (CEM-C7A cells; CEM C7A cells, 100 nM, three day incubation) | induction of apoptosis (CEM-C7A cells; unpublished data, conditions not given) | desired profile in-vivo [2] | selectivity for transrepression over transactivation (glucocorticoid receptor) [fold] | induction of MMTV (wild-type GR) [fold] | induction of MMTV (GR Tyr735phe) [fold] | induction of MMTV (GR Tyr735val) [fold] | induction of MMTV (GR Tyr735ser) |
| --- | --- | --- | --- | --- | --- | --- | --- | --- | --- | --- |
| activating the progesterone receptor | C[C@@H]1C[C@H]2[C@@H]3CCC4=CC(=O)C=C[C@]4(C)[C@@]3(F)[C@@H](O)C[C@]2(C)[C@H]1C(=O)CC#N [RU24858, reference compound] | impaired proliferation | did not induce significant apoptosis | does not induce apoptosis | failed to show the desired profile in-vivo | 2 | – | – | – | – |
| – | C[C@]12CCC(=O)C=C1CC[C@@H]1[C@@H]2[C@@H](O)C[C@@]2(C)[C@H]1CC[C@]2(O)C(=O)CO [hydrocortisone] | – | – | – | – | – | 18 | 11 | 10.6 | failed to induce the reporter |
